Data on two compounds can be found in article PMC10233092, “Selective Janus kinase 1 inhibition resolves inflammation and restores hair growth offering a viable treatment option for alopecia areata” (Skin Health and Disease, 2023).

Values after ≈ are worked out from the molar mass of the structure shown. Values joined by “and” are separate entries in the source; they are usually repeats but may differ in a detail not shown here. Equal entries are not always repeated.

Data set [1] has as its system IL‐4, STAT6‐Luc. Nature of the data set: IL-4-induced JAK-STAT6-luciferase assay in U937 monocytes. The conditions noted are these: Homo sapiens, U-937, interleukin at EC80. It counts as cell-based.
Data set [2] in a line: Solubility in phosphate buffer. It counts as physicochemical. The following applies: pH 7.4, aqueous buffer. The source says: TABLE 1 In vitro potency and selectivity of JAK inhibitors | column: Solubility (μM) ^c
The test system of data set [3] is AA mice. Further details: method as in PMID 25129481. The following applies: 12 weeks of treatment, 3 months follow up; cited from earlier work.
The subject of data set [4] is Human Peripheral Blood Mononuclear Cells (PBMCs). Nature of the data set: Cytokine release from anti-CD3-stimulated human PBMCs. It counts as cell-based. The following applies: during stimulation with anti‐CD3, 40–48 h. As for the experimental part:
Human Peripheral Blood Mononuclear Cells (PBMCs) were isolated by Sepmate technique (Stemcell Technologies) from heparinized venous blood from healthy volunteers. Primary human CD8^+ T‐cells were further isolated using a CD8^+ T cell Isolation Kit according to protocol (Miltenyi Biotec). Experiments were approved by the local ethical committee in Gothenburg (033‐11).
Soluble anti‐CD28 were added to the CD8^+ cultures to facilitate co‐stimulation. After 40–48 h, supernatants were harvested for mediator analysis and the cells were washed and resuspended in RLT buffer (Qiagen) for RNA isolation.
Analysis of human cytokine panels was carried out using a Luminex assay kit from Merck Millipore (Cat# HCYTMAG‐60K‐PX41) and Mesoscale Discovery (MSD) immunoassay kits (Cat# K211AEB‐2 and K15049D) as recommended in the respective supplier protocols.

For data set [5], the system named is IL‐13, STAT6‐Luc. The data set can be described thus: IL-13-induced JAK-STAT6-luciferase assay in U937 monocytes. It is filed as cell-based. The following applies: Homo sapiens, U-937, interleukin at EC80.
A short description of data set [6]: Plasma and skin exposure in treated AA mice. The following applies: 3% cream topically, one hour after application.

Turning to `N#CC[C@H](C1CCCC1)n1cc(-c2ncnc3[nH]ccc23)cn1` [Ruxolitinib, reference compound], the IC50 – broadly, the point on the concentration scale where inhibition reaches its midpoint – turned out to be 110 nM in data set [1] and 82 nM in data set [5]. The solubility (in general, how much of the substance goes into solution per volume) in data set [2] was 678 µM (≈ 208 µg/mL). The remission after treatment result in data set [3] is given as “induced stable remission”. Also, the “release of IL‐1RA from PBMCs” value in data set [4] is recorded as “dramatically increased”.
In the case of `C[C@@H]1CCN(C(=O)CC#N)C[C@@H]1N(C)c1ncnc2[nH]ccc12` [Tofacitinib, reference compound], the “unbound plasma exposure over IC50” value in data set [6] is 3–7 fold IC50 and 5 fold IC50. In addition, the solubility in data set [2] is > 1000 µM. In data set [3], the remission after treatment entry is “induced stable remission”. Moreover, the “release of IL‐1RA from PBMCs” value in data set [4] is reported as “dramatically increased”.
